Source: PMC8654847, “Design of a methotrexate-controlled chemical dimerization system and its use in bio-electronic devices” (Nature Communications, 2021)

Target: T1, anti-MTX VHH
T1 construct: nanoCLAMP8-VHH fusion for the crystal structure 7RG7
Experiment: microscale thermophoresis (EGFP-VHH titrated with MTX); […] Å crystal structure of the ternary complex with nanoCLAMP8
Format: binding

CN(Cc1cnc2nc(N)nc(N)c2n1)c1ccc(C(=O)N[C@@H](CCC(=O)O)C(=O)O)cc1 [MTX, methotrexate]
Kd: 4.3 ± 0.25 nM
